The values that follow are results of earlier work, collected in article PMC4090575, “An In Vivo Microdialysis Study of FLZ Penetration through the Blood-Brain Barrier in Normal and 6-Hydroxydopamine Induced Parkinson's Disease Model Rats” (BioMed Research International, 2014).

Structures are written as SMILES.

The subject of the data set is P-gp mediated multidrug resistance. Also noted: method as in PMID 9381979. Conditions: high therapeutic index; cited from earlier work.

As to `Cl.Cl.Cl.O[C@@H](COc1cccc2ncccc12)CN1CCN([C@@H]2c3ccccc3[C@@H]3[C@H](c4ccccc42)C3(F)F)CC1` [Zosuquidar·3HCl, zosuquidar trihydrochloride], the “active doses in in vivo antitumor efficacy experiments” value is on record as 1 to 30 mg/kg.
